Patent US8557797B2, “Triazolopyridine derivatives and their therapeutic use” (Chiesi Farmaceutici S.p.A., priority 2009, dated 2013)

Columns and labels:
p38α = target: T1, p38α (Homo sapiens, UniProt Q16539); test: p38 Kinase Assay (ATF-2 phosphorylation ELISA); type: biochemical; conditions: 2 h pre-incubation, ATP 250 μM, 1% DMSO; read-out: p38α inhibition (IC50 values)
T1 construct: purchased Calbiochem 559324; host or cells: E. coli
Protocol: Human recombinant p38 enzyme expressed in E. coli and activated by incubation with MKK6 enzyme (Calbiochem #559324) is used as source of enzyme activity.
The assay is carried in high binding, clear, flat bottom 96 well assay plates which have been coated with recombinant ATF-2 (Biosource #PHF0043). Test compounds are incubated with p38 kinase for 2 h prior to initiating the kinase assay by the addition of ATP to obtain an assay concentration of 250 μM. Phosphorylation of ATF-2 is detected and quantified using an ELISA. This consists of sequential incubation in the presence of anti-phospho-ATF2, biotinylated anti-IgG and streptavidin-HRP. Incubation with an HRP chromogenic substrate (TMB) results in absorbance that is proportional to the amount of phosphorylated substrate produced. Absorbance is detected using a multiwell plate reader.
Compounds are diluted in DMSO prior to addition to assay buffer, the final DMSO concentration in the assay being 1%.
The IC50 is defined as the concentration at which a given compound achieves 50% inhibition of control.

[1] = test system: TNFα release from LPS activated THP-1 cells or PBMC's; test: p38 Functional Assay (TNFα release after LPS); type: cell-based; conditions: Homo sapiens, 1 h pre-treatment, 0.3% DMSO, read-out: EC50 (inhibition of TNFα release)
Protocol: Inhibition of cellular p38 depresses the release of TNFα, a functional response which is quantified by measurement of the amount of TNFα in the supernatants of LPS activated THP-1 cells (an immortalised monocytic cell line) or peripheral blood mononuclear cells (PBMC's) isolated from freshly drawn human blood.
Cells seeded in 96 well plates are pre-treated by the addition of p38 inhibitors for 1 h followed by addition of lipopolysaccharide (LPS) to activate cytokine production and release. The amount of TNFα released into the cell supernatants is quantified using an R&D Systems enzyme linked immunosorbant assay (ELISA) kit (product DY210) following the manufacturers instructions.
Compounds are diluted in DMSO prior to addition, the final DMSO concentration in the assay being 0.3%. The EC50 is defined as the concentration at which a given compound achieves 50% inhibition of the control.

T1 sequence (Q16539 whole entry): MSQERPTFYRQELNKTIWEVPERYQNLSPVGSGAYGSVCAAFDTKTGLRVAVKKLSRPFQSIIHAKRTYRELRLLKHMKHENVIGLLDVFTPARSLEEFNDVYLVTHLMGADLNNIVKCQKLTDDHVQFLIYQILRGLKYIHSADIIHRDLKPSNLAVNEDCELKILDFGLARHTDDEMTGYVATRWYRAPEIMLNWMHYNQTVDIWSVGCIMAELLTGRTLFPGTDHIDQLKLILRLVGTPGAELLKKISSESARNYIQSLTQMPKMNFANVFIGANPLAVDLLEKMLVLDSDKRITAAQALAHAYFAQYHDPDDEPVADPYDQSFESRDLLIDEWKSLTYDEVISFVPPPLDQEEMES

IC50 (p38α) [nM]	SMILES	EC50 [1] [nM]
500 to 2000	O=C(NCC1CC1)c1cccc(Sc2ccc3nnc(-c4cccc(OCCN5CCOCC5)c4)n3c2)c1 [Example 1, N-Cyclopropylmethyl-3-{3-[3-(2-morpholin-4-yl-ethoxy)-phenyl]-[1,2,4]triazolo[4,3-a]pyridin-6-ylsulfanyl}-benzamide]	500 to 7000
100 to 500	O=C(Nc1cccc(N2CCOCC2)c1)c1cccc(Sc2ccc3nnc(-c4cccc(OCCN5CCOCC5)c4)n3c2)c1 [Example 2]	100 to 500
100 to 500	O=C(Nc1ccnc(N2CCOCC2)c1)c1cccc(Sc2ccc3nnc(-c4cccc(OCCN5CCOCC5)c4)n3c2)c1 [Example 3]	10 to 100
10 to 100	Cc1ccc(-n2nc(C(C)(C)C)cc2NC(=O)Nc2ccc(Sc3ccc4nnc(-c5cccc(OCCN6CCOCC6)c5)n4c3)nc2)cc1 [Example 12, 1-(5-tert-Butyl-2-p-tolyl-2H-pyrazol-3-yl)-3-(6-{3-[3-(2-morpholin-4-yl-ethoxy)-phenyl]-[1,2,4]triazolo[4,3-a]pyridin-6-ylsulfanyl}-pyridin-3-yl)-urea]	10 to 100
100 to 500	Cc1ccc(-n2nc(C(C)(C)C)cc2NC(=O)Nc2ccc(Sc3ccc4nnc(-c5cccc(OCCN6CCOCC6)c5)n4c3)cn2)cc1 [Example 13, 1-(5-tert-Butyl-2-p-tolyl-2H-pyrazol-3-yl)-3-(5-{3-[3-(2-morpholin-4-yl-ethoxy)-phenyl]-[1,2,4]triazolo[4,3-a]pyridin-6-ylsulfanyl}-pyridin-2-yl)-urea]	10 to 100
10 to 100	Cc1ccc(-n2nc(C(C)(C)C)cc2NC(=O)N[C@H]2CC[C@H](Oc3ccc4nnc(-c5cccc(OCCN6CCOCC6)c5)n4c3)CC2)cc1 [Example 14, 1-(5-tert-Butyl-2-p-tolyl-2H-pyrazol-3-yl)-3-(trans-4-{3-[3-(2-morpholin-4-yl-ethoxy)-phenyl]-[1,2,4]triazolo[4,3-a]pyridin-6-yloxy}-cyclohexyl)-urea]	10 to 100
100 to 500	Cc1ccc(-n2nc(C(C)(C)C)cc2NC(=O)N[C@H]2CC[C@@H](Oc3ccc4nnc(-c5cccc(OCCN6CCOCC6)c5)n4c3)CC2)cc1 [Example 15]	500 to 7000
500 to 2000	Cc1ccc(-n2nc(C(C)(C)C)cc2NC(=O)CN2CCC(Oc3ccc4nnc(-c5cccc(OCCN6CCOCC6)c5)n4c3)CC2)cc1 [Example 17, N-(5-tert-Butyl-2-p-tolyl-2H-pyrazol-3-yl)-2-(4-{3-[3-(2-morpholin-4-yl-ethoxy)-phenyl]-[1,2,4]triazolo[4,3-a]pyridin-6-yloxy}-piperidin-1-yl)-acetamide]	500 to 7000

More lines, now with the values behind:

SMILES	IC50 (p38α) [nM]	EC50 [1] [nM]
Cc1ccc(-n2nc(C(C)(C)C)cc2NC(=O)Cc2ccc(Sc3ccc4nnc(C(C)C)n4c3)cc2)cc1 [Example 6]	< 10	10 to 100
Cc1ccc(-n2nc(C(C)(C)C)cc2NC(=O)Cc2ccc(Sc3ccc4nnc(-c5cccc(OCc6ccccc6)c5)n4c3)cc2)cc1 [Example 8]	10 to 100	100 to 500
Cc1ccc(-n2nc(C(C)(C)C)cc2NC(=O)Nc2ccc(Sc3ccc4nnc(-c5cccc(OCc6ccccc6)c5)n4c3)cc2)cc1 [Example 11]	500 to 2000	100 to 500
CC(C)(C)c1cc(NC(=O)N[C@H]2CC[C@H](Oc3ccc4nnc(-c5cccc(OCCN6CCOCC6)c5)n4c3)CC2)n(-c2ccccc2)n1 [Example 16]	10 to 100	500 to 7000
Cc1ccc(-n2nc(C(C)(C)C)cc2NC(=O)Cc2ccc(Sc3ccc4nnc(-c5cccc(O)c5)n4c3)cc2)cc1 [Example 18, N-(5-tert-Butyl-2-p-tolyl-2H-pyrazol-3-yl)-2-{4-[3-(3-hydroxy-phenyl)-[1,2,4]triazolo[4,3-a]pyridin-6-ylsulfanyl]-phenyl}-acetamide]	< 10	10 to 100
CC(C)c1nnc2ccc(Sc3ccc(CC(=O)Nc4cc(C(C)(C)C)nn4-c4ccc(OCCN5CCOCC5)cc4)cc3)cn12 [Example 19, N-{5-tert-Butyl-2-[4-(2-morpholin-4-yl-ethoxy)-phenyl]-2H-pyrazol-3-yl}-2-[4-(3-isopropyl-[1,2,4]triazolo[4,3-a]pyridin-6-ylsulfanyl)-phenyl]-acetamide]	500 to 2000	500 to 7000
CC(C)c1nnc2ccc(Sc3ccc(CC(=O)Nc4cc(C(C)(C)C)nn4-c4ccc(O)cc4)cc3)cn12 [Example 20, N-[5-tert-Butyl-2-(4-hydroxy-phenyl)-2H-pyrazol-3-yl]-2-[4-(3-isopropyl-[1,2,4]triazolo[4,3-a]pyridin-6-ylsulfanyl)-phenyl]-acetamide]	10 to 100	10 to 100
Cc1ccc(-n2nc(C(C)(C)C)cc2NC(=O)N[C@H]2CC[C@H](Oc3ccc4nnc(C(C)C)n4c3)CC2)cc1 [Example 21, 1-(5-tert-Butyl-2-p-tolyl-2H-pyrazol-3-yl)-3-[4-(3-isopropyl-[1,2,4]triazolo[4,3-a]pyridin-6-yloxy)-cyclohexyl]-urea]	10 to 100	10 to 100
Cc1ccc(-n2nc(C(C)(C)C)cc2NC(=O)C[C@H]2CC[C@H](Oc3ccc4nnc(C(C)C)n4c3)CC2)cc1 [Example 22, N-(5-tert-Butyl-2-p-tolyl-2H-pyrazol-3-yl)-2-[4-(3-isopropyl-[1,2,4]-triazolo[4,3-a]pyridin-6-yloxy)-cyclohexyl]-acetamide]	500 to 2000	500 to 7000
Cc1ccc(-n2nc(C(C)(C)C)cc2NC(=O)Cc2ccc(Oc3ccc4nnc(C(C)C)n4c3)cc2)cc1 [Example 23, N-(5-tert-Butyl-2-p-tolyl-2H-pyrazol-3-yl)-2-[4-(3-isopropyl-[1,2,4]triazolo[4,3-a]pyridin-6-yloxy)-phenyl]-acetamide]	< 10	< 10
Cc1ccc(-n2nc(C(C)(C)C)cc2NC(=O)C(C)c2ccc(Sc3ccc4nnc(C(C)C)n4c3)cc2)cc1 (centres unmarked) [Example 24, N-(5-tert-Butyl-2-p-tolyl-2H-pyrazol-3-yl)-2-[4-(3-isopropyl-[1,2,4]triazolo[4,3-a]pyridin-6-ylsulfanyl)-phenyl]-propionamide]	100 to 500	–
Cc1ccc(-n2nc(C(C)(C)C)cc2NC(=O)N[C@H]2CC[C@H](Oc3ccc4nnc(C5CCCC5)n4c3)CC2)cc1 [Example 25, 1-(5-tert-Butyl-2-p-tolyl-2H-pyrazol-3-yl)-3-[4-(3-cyclopentyl-[1,2,4]triazolo[4,3-a]pyridin-6-yloxy)-cyclohexyl]-urea]	< 10	–
CC(C)c1nnc2ccc(Sc3ccc(CC(=O)Nc4cc(C(C)(C)C)nn4-c4cccc(OCCc5ccncc5)c4)cc3)cn12 [Example 27, N-{5-tert-Butyl-2-[3-(2-pyridin-4-yl-ethoxy)-phenyl]-2H-pyrazol-3-yl}-2-[4-(3-isopropyl-[1,2,4]triazolo[4,3-a]pyridin-6-ylsulfanyl)-phenyl]-acetamide]	10 to 100	–
Cc1ccc(-n2nc(C(C)(C)C)cc2NC(=O)c2cccc(Sc3ccc4nnc(C(C)C)n4c3)c2)cc1 [Example 28]	10 to 100	–
Cc1ccc(-n2nc(C(C)(C)C)cc2NC(=O)NC2CCC(Oc3ccc4nnc(-c5ccccn5)n4c3)CC2)cc1 (centres unmarked) [Example 29, 1-(5-tert-Butyl-2-p-tolyl-2H-pyrazol-3-yl)-3-[4-(3-pyridin-2-yl-[1,2,4]triazolo[4,3-a]pyridin-6-yloxy)-cyclohexyl]-urea]	10 to 100	–
